Data on 9 compounds can be found in patent publication US11691968B2, “Compound having KDM5 inhibitory activity and pharmaceutical use thereof” (ONO PHARMACEUTICAL CO., LTD., priority 2020, dated 2023).

Read-outs that look alike come from different tables or passages of the source.

Usually IC50 stands for the concentration needed to halve the response being measured. Higher therefore signals weaker potency in that assay.

Data set [1] can be described thus: Brain Concentration in Mice. The class given is in vivo. As to conditions: mouse, mice (C57BL/6). Here is the method:
Brain Concentration in Mice
Test compounds were orally administered to mice (C57BL/6) at 1 or 3 mg/kg. Brain samples were collected 2 h after the administration and homogenized with 3-fold volumes of distilled water.
LC-MS/MS analysis was conducted as specified below. Standard calibration samples were prepared using the same matrix and analyzed in the same manner.
Standard calibration samples were analyzed to calculate a regression equation from the peak area ratio (test compound/internal standard). The peak area ratio was determined for a measurement sample and assigned to the regression equation to calculate an assay value.

The next data set addresses KDM5A (Homo sapiens (Human), UniProt P29375). As to the kind of experiment: Biochemical KDM5A Inhibition Assay (HTRF). Particulars: KDM5A protein, biotin-labelled H3K4-Me3 substrate. Here is the method: Biochemical KDM5A Inhibition Assay
Using 384-well white Greiner784075 (Greiner), representative compounds were characterized for their inhibition of KDM5A using HTRF® technology (Cisbio Bioassays). Briefly, the test compounds, reference compounds, and DMSO control (typical compound concentration range 1 μM-[…], final assay concentration (FAC*) of DMSO 0.5%) were added to 384-well plate by the Echo® acoustic dispensing platform (Labcyte). Five (5) 1l of KDM5A protein (produced by the method described in Nat Chem Biol 12, 531-538 (2016)). (5-20 nM FAC*) in assay buffer (50 mM MES, 50 mM NaCl, 1 mM TCEP, 0.01% v/v Tween 20, 0.03% BSA, pH 6.5) was added to wells and plates were incubated for 10-20 minutes at 25 degrees celsius. Then, 5 μl of alpha-ketoglutaric acid (100 μM FAC*), biotin-labelled H3K4-Me3 substrate (Anaspec Cat #AS-64357-1; 200 nM FAC*), Fe(II)SO4 (100 μM FAC*) and ascorbic acid (2 mM FAC*) in assay buffer was added to wells and plates were incubated for 20 minutes at room temperature. The reaction was stopped with the addition of 10 μl of anti-H3K4-Me2-Eu(K) (Cisbio Bioassays Cat #61KA2KAH; 0.75 nM FAC**)+Streptavidin XL665 (Cisbio Bioassays Cat #610SAXLB; 25 nM FAC**) in HTRF detection buffer (Cisbio Bioassays Cat #62SDBRDF). The mixture was incubated for 30 minutes at room temperature before 340 nm excitation and measurement of dual emission at 620 nm and 665 run. *FAC: final assay concentration calculated based on 10 μl of the assay buffer**FAC: final assay concentration calculated based on 20 μl of the detection buffer
The raw data (a 665 nm and a 620 nm reading from each well) for individual assay plates were analyzed. The ratio of emissions was calculated using the following calculation: Ratio=(665 nm emission/620 nm emission)×10000. […] Compound IC50 values were calculated from graphs of % inhibition plotted against compound concentration, using a four parameter curve fit. [Results]
Background: Time-resolved FRET reads energy transfer from a long-lived donor to a nearby acceptor.

Data set [2] is described as follows: Metabolic Stability in Human Liver Microsomes. The class given is in vitro ADME. The protocol: Metabolic Stability in Human Liver Microsomes
Human liver microsome (BD Gentest Corporation, Cat No. #452161) incubations were conducted in duplicate in 96-well plates. Each well contains 40 μL of 0.1 M potassium phosphate buffer (pH 7.4), 4.125 mM MgCl2, 0.625 mg/mL liver microsomes, and test compound (1.25 μM). After 5-min preincubation at 37° C., 10 uL of 5.0 mM NADPH in 0.1M potassium phosphate buffer was added to initiate the enzymatic reaction. The final component concentrations are 0.1M potassium phosphate buffer (pH 7.4), 1.0 mM NADPH, 3.3 mM MgCl2, 0.5 mg/mL liver microsomes, and test compound (1.0 μM). Reactions were terminated at 0 and 60 min by adding 200 μL of ice-cold acetonitrile containing internal standard.
LC-MS/MS analysis was conducted as specified below.
The remaining at 60 min (%) of test compound was calculated from the peak area ratio (test compound/internal standard) of samples collected 0 and 60 min after the start of the reaction according to the formula described below. Remaining at 60 min (%)=peak area ratio of sample collected at 60 min/peak area ratio of sample collected at 0 min×100 [Results]
(Microsomes from liver hold many membrane-bound enzymes, among them those of drug oxidation.)

[3] abbreviates: human, microsomes, 1 h, 1 μM, pH 7.4.
Where [4] appears, read: po, orally administered, 1 mg/kg, brain 2 h after administration, read-out: Unbound-Brain Concentration at 2 h at 1 mg/kg.

Chain of KDM5A (P29375 whole entry): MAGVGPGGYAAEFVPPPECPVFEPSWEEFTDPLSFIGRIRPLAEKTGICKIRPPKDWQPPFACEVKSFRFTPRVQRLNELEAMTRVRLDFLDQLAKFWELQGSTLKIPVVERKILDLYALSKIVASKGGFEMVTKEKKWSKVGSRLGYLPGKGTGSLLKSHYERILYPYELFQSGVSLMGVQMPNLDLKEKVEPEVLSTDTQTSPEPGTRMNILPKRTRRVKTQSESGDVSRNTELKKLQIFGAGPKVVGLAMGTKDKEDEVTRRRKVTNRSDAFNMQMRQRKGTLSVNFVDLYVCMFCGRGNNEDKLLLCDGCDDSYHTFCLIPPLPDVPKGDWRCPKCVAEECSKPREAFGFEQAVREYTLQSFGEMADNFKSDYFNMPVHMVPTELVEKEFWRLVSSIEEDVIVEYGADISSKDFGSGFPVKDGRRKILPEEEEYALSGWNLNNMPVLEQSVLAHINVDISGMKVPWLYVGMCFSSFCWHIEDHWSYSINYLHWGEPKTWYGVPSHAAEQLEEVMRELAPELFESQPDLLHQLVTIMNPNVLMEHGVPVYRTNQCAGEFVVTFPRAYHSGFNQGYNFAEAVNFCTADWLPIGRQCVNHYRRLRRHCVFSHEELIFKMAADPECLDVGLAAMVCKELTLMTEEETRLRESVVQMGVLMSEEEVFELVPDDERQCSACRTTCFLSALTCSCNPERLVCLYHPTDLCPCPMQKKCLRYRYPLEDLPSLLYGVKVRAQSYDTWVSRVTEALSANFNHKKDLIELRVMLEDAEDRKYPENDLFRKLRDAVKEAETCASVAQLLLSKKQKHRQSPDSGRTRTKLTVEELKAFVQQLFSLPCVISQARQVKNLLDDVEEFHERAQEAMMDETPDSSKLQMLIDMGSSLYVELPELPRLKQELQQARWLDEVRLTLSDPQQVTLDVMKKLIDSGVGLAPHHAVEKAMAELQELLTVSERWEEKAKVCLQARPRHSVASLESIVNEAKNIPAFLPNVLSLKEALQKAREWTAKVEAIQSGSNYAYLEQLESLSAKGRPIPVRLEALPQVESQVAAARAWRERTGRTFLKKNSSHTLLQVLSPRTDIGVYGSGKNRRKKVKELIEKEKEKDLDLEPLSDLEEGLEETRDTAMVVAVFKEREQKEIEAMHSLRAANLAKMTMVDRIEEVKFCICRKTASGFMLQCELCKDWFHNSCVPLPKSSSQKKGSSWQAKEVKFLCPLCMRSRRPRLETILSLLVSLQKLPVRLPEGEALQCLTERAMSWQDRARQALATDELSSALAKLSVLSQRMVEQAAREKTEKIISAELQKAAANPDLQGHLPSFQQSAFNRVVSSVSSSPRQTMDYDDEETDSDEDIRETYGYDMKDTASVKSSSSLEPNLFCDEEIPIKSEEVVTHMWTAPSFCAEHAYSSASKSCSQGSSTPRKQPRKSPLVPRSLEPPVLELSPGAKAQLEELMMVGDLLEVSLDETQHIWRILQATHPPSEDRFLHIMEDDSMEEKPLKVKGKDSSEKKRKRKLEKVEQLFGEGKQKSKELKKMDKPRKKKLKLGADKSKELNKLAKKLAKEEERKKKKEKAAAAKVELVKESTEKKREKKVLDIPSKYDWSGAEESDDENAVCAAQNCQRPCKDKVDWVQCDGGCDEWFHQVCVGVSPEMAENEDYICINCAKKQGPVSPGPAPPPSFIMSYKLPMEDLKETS

Take `CC(C)n1cnc(C(=O)N2C[C@@H]3[C@H](C2)[C@H]3C2=NOC(C)(C)C2)c1` [Example 1, [(1R,5S,6r)-6-(5,5-dimethyl-4,5-dihydro-1,2-oxazol-3-yl)-3-azabicyclo[3.1.0]hex-3-yl](1-isopropyl-1H-imidazol-4-yl)methanone]: the concentration at 2 h in data set [1] (brain, oral, 2 h, values with * obtained by proportional calculation from the 3 mg/kg data, read-out: Unbound-Brain Concentration at 2 h at 1 mg/kg) was 93.7 ng/g. Also, the IC50 against KDM5A came to 20 nM. Further, the “Metabolic stability in human liver microsomes (% remaining at 60 min)” value (“Metabolic stability … (% remaining at 60 min)” below) in data set [2] (setting [3]) is on record as 95%.

Take `CC[C@H](C)n1cnc(C(=O)N2C[C@@H]3[C@H](C2)[C@H]3C2=NOC(C)(C)C2)c1` [Example 12, {1-[(2S)-butan-2-yl]-1H-imidazol-4-yl}[(1R,5S,6S)-6-(5,5-dimethyl-4,5-dihydro-1,2-oxazol-3-yl)-3-azabicyclo[3.1.0]hex-3-yl]methanone]: in data set [1] (setting [4]), the concentration at 2 h is 10.8 ng/g. This compound showed a concentration for half-maximal inhibition (IC50) against KDM5A of 60 nM. Also, in data set [2] (setting [3]), the “Metabolic stability … (% remaining at 60 min)” value was found to be 100%.

`CC1(C)CC([C@H]2[C@@H]3CN(C(=O)c4cn(C5(C)CC5)cn4)C[C@@H]32)=NO1` [Example 33, [(1R,5S,6r)-6-(5,5-dimethyl-4,5-dihydro-1,2-oxazol-3-yl)-3-azabicyclo[3.1.0]hex-3-yl][1-(1-methylcyclopropyl)-1H-imidazol-4-yl]methanone]: the concentration at 2 h in data set [1] (setting [4]) was 62.1 ng/g. This compound also returned a half-inhibitory concentration (IC50) at KDM5A of 30 nM. For the same compound, the “Metabolic stability … (% remaining at 60 min)” value in data set [2] (setting [3]) was found to be 103%.

`Cc1nnc([C@H]2[C@@H]3CN(C(=O)c4cc(C(C)C)[nH]n4)C[C@@H]32)n1C1CCC1` [Example 124, [(1R,5S,6r)-6-(4-cyclobutyl-5-methyl-4H-1,2,4-triazol-3-yl)-3-azabicyclo[3.1.0]hex-3-yl](5-isopropyl-1H-pyrazol-3-yl)methanone] showed an IC50 on KDM5A of 40 nM. The “Metabolic stability … (% remaining at 60 min)” value in data set [2] (human, microsomes, 1 h) is 97%.

As to `COc1ccc2nnc([C@H]3[C@@H]4CN(C(=O)c5cc(C(C)C)[nH]n5)C[C@@H]43)n2c1` [Example 131, (5-isopropyl-1H-pyrazol-3-yl)[(1R,5S,6r)-6-(6-methoxy[1,2,4]triazolo[4,3-a]pyridin-3-yl)-3-azabicyclo[3.1.0]hex-3-yl]methanone], the IC50 against KDM5A was 10 nM. Also, the “Metabolic stability … (% remaining at 60 min)” value in data set [2] (human, microsomes, 1 h) stood at 84%.

At KDM5A, `CC(C)NC(=O)[C@H]1[C@@H]2CN(C(=O)c3cc(C(C)C)[nH]n3)C[C@@H]21` [Example 136, (1R,5S,6r)-N-(propan-2-yl)-3-[5-(propan-2-yl)-1H-pyrazole-3-carbonyl]-3-azabicyclo[3.1.0]hexane-6-carboxamide] yielded an IC50 of 50 nM. For the same compound, the “Metabolic stability … (% remaining at 60 min)” value in data set [2] (human, microsomes, 1 h) is 97%.

For `C[C@]1(C2=NOC3(CC3)C2)[C@@H]2CN(C(=O)c3cc(C4CC4)[nH]n3)C[C@@H]21` [Example 144, (5-cyclopropyl-1H-pyrazol-3-yl)[(1R,5S,6r)-6-methyl-6-(4-oxa-5-azaspiro[2.4]hept-5-en-6-yl)-3-azabicyclo[3.1.0]hex-3-yl]methanone], the IC50 on KDM5A was found to be 20 nM. In data set [2] (0.5 mg/mL liver microsomes, 1.0 μM test compound, 1.0 mM NADPH, 37° C., 60 min), the “Metabolic stability … (% remaining at 60 min)” value amounted to 101%.

Take `CC(C)c1cc(C(=O)N2C[C@@H]3[C@H](C2)[C@@]3(C)C(=O)NC(C)(C)C)n[nH]1` [Example 145, (1R,5S,6r)-N-tert-butyl-6-methyl-3-[5-(propan-2-yl)-1H-pyrazole-3-carbonyl]-3-azabicyclo[3.1.0]hexane-6-carboxamide]: on KDM5A, it took 90 nM to reach half-maximal inhibition (IC50). Also, the “Metabolic stability … (% remaining at 60 min)” value in data set [2] (human, microsomes, 1 h) is given as 99%.

Turning to `CC(C)c1cc(C(=O)N2CC[C@@H](NC(=O)C3CC3)C2)[nH]n1` [comparative compound, (R)—N-(1-(3-isopropyl-1H-pyrazole-5-carbonyl)pyrrolidin-3-yl)cyclopropane carboxamide, reference compound], the concentration at 2 h in data set [1] (brain, oral, 2 h, comparative compound, dose not restated in the sentence, read-out: Unbound-Brain Concentration at 2 h) came out at 2.5 ng/g.
